Assay: Biodistribution of ^64Cu complexes in balb/c mice
Method: The biodistribution of the ^64Cu complexes of compounds (1), (3) and (4) (0.10 ml intravenous injection) were evaluated in balb/c mice (5 animals per time point) at 3, 5, 10, 15, 20 and 30 minute time intervals. Biodistribution studies were performed in duplicate.

% injected dose per gram (BLADDER, 3 MIN): 13.15 % INJECTED DOSE PER GRAM
% injected dose per gram (BLADDER, 5 MIN): 28.05 % INJECTED DOSE PER GRAM
% injected dose per gram (BLADDER, 10 MIN): 69.91 % INJECTED DOSE PER GRAM
% injected dose per gram (BLADDER, 15 MIN): 8.17 % INJECTED DOSE PER GRAM
% injected dose per gram (BLADDER, 20 MIN): 16.38 % INJECTED DOSE PER GRAM
% injected dose per gram (BLADDER, 30 MIN): 25.38 % INJECTED DOSE PER GRAM
% injected dose per gram (BLOOD, 3 MIN): 8.25 % INJECTED DOSE PER GRAM
% injected dose per gram (BLOOD, 5 MIN): 7.08 % INJECTED DOSE PER GRAM
% injected dose per gram (BLOOD, 10 MIN): 4.41 % INJECTED DOSE PER GRAM
% injected dose per gram (BLOOD, 15 MIN): 2.71 % INJECTED DOSE PER GRAM
% injected dose per gram (BLOOD, 20 MIN): 1.40 % INJECTED DOSE PER GRAM
% injected dose per gram (BLOOD, 30 MIN): 1.07 % INJECTED DOSE PER GRAM
% injected dose per gram (BONE, 3 MIN): 1.60 % INJECTED DOSE PER GRAM
% injected dose per gram (BONE, 5 MIN): 1.56 % INJECTED DOSE PER GRAM
% injected dose per gram (BONE, 10 MIN): 1.28 % INJECTED DOSE PER GRAM
% injected dose per gram (BONE, 15 MIN): 1.60 % INJECTED DOSE PER GRAM
% injected dose per gram (BONE, 20 MIN): 0.89 % INJECTED DOSE PER GRAM
% injected dose per gram (BONE, 30 MIN): 0.65 % INJECTED DOSE PER GRAM
% injected dose per gram (GIT, 3 MIN): 2.62 % INJECTED DOSE PER GRAM
% injected dose per gram (GIT, 5 MIN): 2.16 % INJECTED DOSE PER GRAM
% injected dose per gram (GIT, 10 MIN): 1.49 % INJECTED DOSE PER GRAM
% injected dose per gram (GIT, 15 MIN): 1.07 % INJECTED DOSE PER GRAM
% injected dose per gram (GIT, 20 MIN): 0.89 % INJECTED DOSE PER GRAM
% injected dose per gram (GIT, 30 MIN): 0.80 % INJECTED DOSE PER GRAM
% injected dose per gram (HEART, 3 MIN): 3.25 % INJECTED DOSE PER GRAM
% injected dose per gram (HEART, 5 MIN): 2.66 % INJECTED DOSE PER GRAM
% injected dose per gram (HEART, 10 MIN): 1.60 % INJECTED DOSE PER GRAM
% injected dose per gram (HEART, 15 MIN): 1.08 % INJECTED DOSE PER GRAM
% injected dose per gram (HEART, 20 MIN): 0.51 % INJECTED DOSE PER GRAM
% injected dose per gram (HEART, 30 MIN): 0.47 % INJECTED DOSE PER GRAM
% injected dose per gram (KIDNEY, 3 MIN): 20.08 % INJECTED DOSE PER GRAM
% injected dose per gram (KIDNEY, 5 MIN): 18.62 % INJECTED DOSE PER GRAM
% injected dose per gram (KIDNEY, 10 MIN): 14.79 % INJECTED DOSE PER GRAM
% injected dose per gram (KIDNEY, 15 MIN): 7.52 % INJECTED DOSE PER GRAM
% injected dose per gram (KIDNEY, 20 MIN): 25.99 % INJECTED DOSE PER GRAM
% injected dose per gram (KIDNEY, 30 MIN): 30.26 % INJECTED DOSE PER GRAM
% injected dose per gram (LIVER, 3 MIN): 1.81 % INJECTED DOSE PER GRAM
% injected dose per gram (LIVER, 5 MIN): 1.59 % INJECTED DOSE PER GRAM
% injected dose per gram (LIVER, 10 MIN): 1.16 % INJECTED DOSE PER GRAM
% injected dose per gram (LIVER, 15 MIN): 0.64 % INJECTED DOSE PER GRAM
% injected dose per gram (LIVER, 20 MIN): 5.01 % INJECTED DOSE PER GRAM
% injected dose per gram (LIVER, 30 MIN): 5.76 % INJECTED DOSE PER GRAM
% injected dose per gram (LUNGS, 3 MIN): 5.85 % INJECTED DOSE PER GRAM
% injected dose per gram (LUNGS, 5 MIN): 5.28 % INJECTED DOSE PER GRAM
% injected dose per gram (LUNGS, 10 MIN): 2.84 % INJECTED DOSE PER GRAM
% injected dose per gram (LUNGS, 15 MIN): 2.09 % INJECTED DOSE PER GRAM
% injected dose per gram (LUNGS, 20 MIN): 1.13 % INJECTED DOSE PER GRAM
% injected dose per gram (LUNGS, 30 MIN): 0.92 % INJECTED DOSE PER GRAM
% injected dose per gram (MUSCLE, 3 MIN): 1.76 % INJECTED DOSE PER GRAM
% injected dose per gram (MUSCLE, 5 MIN): 2.10 % INJECTED DOSE PER GRAM
% injected dose per gram (MUSCLE, 10 MIN): 1.24 % INJECTED DOSE PER GRAM
% injected dose per gram (MUSCLE, 15 MIN): 1.73 % INJECTED DOSE PER GRAM
% injected dose per gram (MUSCLE, 20 MIN): 0.36 % INJECTED DOSE PER GRAM
% injected dose per gram (MUSCLE, 30 MIN): 1.27 % INJECTED DOSE PER GRAM
% injected dose per gram (SKIN, 3 MIN): 5.98 % INJECTED DOSE PER GRAM
% injected dose per gram (SKIN, 5 MIN): 6.46 % INJECTED DOSE PER GRAM
% injected dose per gram (SKIN, 10 MIN): 4.21 % INJECTED DOSE PER GRAM
% injected dose per gram (SKIN, 15 MIN): 2.76 % INJECTED DOSE PER GRAM
% injected dose per gram (SKIN, 20 MIN): 1.73 % INJECTED DOSE PER GRAM
% injected dose per gram (SKIN, 30 MIN): 1.42 % INJECTED DOSE PER GRAM
% injected dose per gram (SPLEEN, 3 MIN): 2.26 % INJECTED DOSE PER GRAM
% injected dose per gram (SPLEEN, 5 MIN): 2.17 % INJECTED DOSE PER GRAM
% injected dose per gram (SPLEEN, 10 MIN): 1.28 % INJECTED DOSE PER GRAM
% injected dose per gram (SPLEEN, 15 MIN): 0.67 % INJECTED DOSE PER GRAM
% injected dose per gram (SPLEEN, 20 MIN): 0.52 % INJECTED DOSE PER GRAM
% injected dose per gram (SPLEEN, 30 MIN): 0.35 % INJECTED DOSE PER GRAM
% injected dose per gram (STOMACH, 3 MIN): 3.53 % INJECTED DOSE PER GRAM
% injected dose per gram (STOMACH, 5 MIN): 3.04 % INJECTED DOSE PER GRAM
% injected dose per gram (STOMACH, 10 MIN): 1.84 % INJECTED DOSE PER GRAM
% injected dose per gram (STOMACH, 15 MIN): 0.89 % INJECTED DOSE PER GRAM
% injected dose per gram (STOMACH, 20 MIN): 0.70 % INJECTED DOSE PER GRAM
% injected dose per gram (STOMACH, 30 MIN): 0.65 % INJECTED DOSE PER GRAM
Compound: C1CNCC2CNCCNCC(CN1)CNCCNC2.[64Cu+2] [^64Cu-labelled compound (4)]
